From US20230143604A1, “QW DOSING OF GIP RECEPTOR AGONIST PEPTIDE COMPOUNDS AND USES THEREOF” (TAKEDA PHARMACEUTICAL COMPANY LIMITED, priority 2020, published 2023)
Starred links: 1 amine or outer side, 2 acyl side, 3 side chain; linkers in the order of their positions; H or OH if unused. Non-standard residues stand in square brackets, D forms with d. Residues, ends and D or L forms follow the SMILES beside them. Groups on a side chain read outwards from the residue. *: point of attachment. C18 diacid = O=C(O)CCCCCCCCCCCCCCCCC(=O)*; γGlu = O=C(O)[C@H](CCC(=O)[*:2])N[*:1]; NMeY = CN[C@@H](Cc1ccc(O)cc1)C(=O)O; AEEA = NCCOCCOCC(=O)O; Aib = CC(C)(N)C(=O)O

Columns and labels:
[1] = Serum half-life and percentage remaining at 48 hours; format: in vitro ADME; settings: both sexes, pH 7.4, human plasma, 500 nM peptide, 37° C.; for half-life at 500 nM: read-out: Serum t1/2 (converted); for remaining at 48 h, 500 nM: plasma (sodium heparin)
Experimental: Human plasma (mixed gender: sodium heparin is used as anti-coagulant; pre-adjusted to pH 7.4—NB alternative species may be used) is spiked with each test peptide (500 nM) and incubated·cn=3) at 37° C. for 48 hours in a 5% CO2 environment. Aliquots are taken at 0. 1, 2, 4, 7, 24 and […] and pH adjusted to pH 3 with 20% formic acid prior to analysis. Appropriate positive control compounds will be incubated in parallel, in addition to a no plasma control, sampled at 0 and 8 hours. All samples will be treated with ice-cold acetonitrile/methanol (4:1 (v/v)) containing internal standard prior to centrifugation at 2000 g and 4° C. for 10 minutes and subjected to LC-MS/MS analysis.
The samples are analyzed by LC-MS/MS using a 6500 (or equivalent) triple quadrupole mass spectrometer (AB Sciex) coupled to an appropriate Liquid Chromatography (LC) system. Protein binding and stability values are determined via peak area ratios using multiple reaction monitoring (MRM) parameters following compound optimisation. Multiple reaction monitoring (MRM) is a highly sensitive method of targeted mass spectrometry (MS) that can be used to selectively detect and quantify peptides based on the screening of specified precursor peptide-to-fragment ion transitions.

[2] = Solubility in phosphate buffer pH 7.4
Procedure, shortened: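 Solubility at pH 7.4 determined by stepwise addition of 200 mM phosphate buffer in 100 μL increments to 3 mg peptide, mixing briefly each time, until no insoluble material remained, then measured by liquid chromatography.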

[3] = pH 7.4, aqueous buffer, pH 7.4 Phosphate Buffer - Solubility, 200 mM Phosphate buffer pH 7.4
[4] = pH 7.4, solubility in phosphate buffer at pH 7.4, 200 mM phosphate buffer pH 7.4

SMILES | half-life at 500 nM [1] [h] | remaining at 48 h, 500 nM [1] [%] | solubility [2, 3] [mg/mL] | solubility [2, 4] [mg/mL]
CC[C@H](C)[C@H](NC(=O)[C@H](CO)NC(=O)[C@H](Cc1ccc(O)cc1)NC(=O)[C@H](CC(=O)O)NC(=O)[C@H](CO)NC(=O)[C@@H](NC(=O)[C@H](Cc1ccccc1)NC(=O)[C@@H](NC(=O)CNC(=O)[C@H](CCC(=O)O)NC(=O)C(C)(C)NC(=O)[C@H](Cc1ccc(O)cc1)NC)[C@@H](C)O)[C@@H](C)CC)C(=O)N[C@@H](C)C(=O)N[C@@H](CC(C)C)C(=O)N[C@@H](CC(=O)O)C(=O)N[C@@H](CCCNC(=N)N)C(=O)N[C@H](C(=O)N[C@@H](Cc1c[nH]cn1)C(=O)N[C@@H](CCC(N)=O)C(=O)NC(C)(C)C(=O)N[C@@H](CC(N)=O)C(=O)N[C@@H](Cc1ccccc1)C(=O)N[C@H](C(=O)N[C@@H](CC(N)=O)C(=O)N[C@@H](Cc1c[nH]c2ccccc12)C(=O)N[C@@H](CC(C)C)C(=O)N[C@@H](CC(C)C)C(=O)N[C@@H](C)C(=O)N[C@@H](CCC(N)=O)C(=O)N[C@@H](CCCCNC(=O)COCCOCCNC(=O)COCCOCCNC(=O)CC[C@H](NC(=O)CCCCCCCCCCCCCCCCC(=O)O)C(=O)O)C(=O)N1CCC[C@H]1C(=O)N[C@@H](CO)C(=O)N[C@@H](CO)C(=O)NCC(=O)N[C@@H](C)C(=O)N1CCC[C@H]1C(=O)N1CCC[C@H]1C(=O)N1CCC[C@H]1C(=O)N[C@@H](CO)C(N)=O)C(C)C)[C@@H](C)CC [Compound 2] (H-[NMeY][Aib]EGTFISDYSIALDRIHQ[Aib]NFVNWLLAQK([AEEA-AEEA-γGlu-C18 diacid])PSSGAPPPS-NH2) | 24.1 | 27 | ≥ 30 | ≥ 15
CC[C@H](C)[C@H](NC(=O)[C@H](CO)NC(=O)[C@H](Cc1ccc(O)cc1)NC(=O)[C@H](CC(=O)O)NC(=O)[C@H](CO)NC(=O)[C@@H](NC(=O)[C@H](Cc1ccccc1)NC(=O)[C@@H](NC(=O)CNC(=O)[C@H](CCC(=O)O)NC(=O)C(C)(C)NC(=O)[C@H](Cc1ccc(O)cc1)NC)[C@@H](C)O)[C@@H](C)CC)C(=O)N[C@@H](C)C(=O)N[C@@H](CCCCNC(=O)COCCOCCNC(=O)COCCOCCNC(=O)CC[C@H](NC(=O)CCCCCCCCCCCCCCCCC(=O)O)C(=O)O)C(=O)N[C@@H](CC(=O)O)C(=O)N[C@@H](CCCNC(=N)N)C(=O)N[C@H](C(=O)N[C@@H](Cc1c[nH]cn1)C(=O)N[C@@H](CCC(N)=O)C(=O)N[C@@H](CCC(N)=O)C(=O)N[C@@H](CC(N)=O)C(=O)N[C@@H](Cc1ccccc1)C(=O)N[C@H](C(=O)N[C@@H](CC(N)=O)C(=O)N[C@@H](Cc1c[nH]c2ccccc12)C(=O)N[C@@H](CC(C)C)C(=O)N[C@@H](CC(C)C)C(=O)N[C@@H](C)C(=O)N[C@@H](CCC(N)=O)C(=O)N[C@@H](CCCNC(=N)N)C(=O)N1CCC[C@H]1C(=O)N[C@@H](CO)C(=O)N[C@@H](CO)C(=O)NCC(=O)N[C@@H](C)C(=O)N1CCC[C@H]1C(=O)N1CCC[C@H]1C(=O)N1CCC[C@H]1C(=O)N[C@@H](CO)C(N)=O)C(C)C)[C@@H](C)CC [Compound 3] (H-[NMeY][Aib]EGTFISDYSIAK([AEEA-AEEA-γGlu-C18 diacid])DRIHQQNFVNWLLAQRPSSGAPPPS-NH2) | 15.9 | 13 | ≥ 30 | ≥ 15
